SMILES strings stand for the structures.

One may read the inhibition as how much of the control response was suppressed. Usually IC50 stands for the concentration that inhibits the measured activity by half. What is called Ki is the dissociation constant of the complex between target and ligand, obtained from inhibition or displacement.

Assay [1] concerns the target T1, Bifunctional epoxide hydrolase 2 (Homo sapiens) (UniProt P34913).
T1 sequence (whole entry): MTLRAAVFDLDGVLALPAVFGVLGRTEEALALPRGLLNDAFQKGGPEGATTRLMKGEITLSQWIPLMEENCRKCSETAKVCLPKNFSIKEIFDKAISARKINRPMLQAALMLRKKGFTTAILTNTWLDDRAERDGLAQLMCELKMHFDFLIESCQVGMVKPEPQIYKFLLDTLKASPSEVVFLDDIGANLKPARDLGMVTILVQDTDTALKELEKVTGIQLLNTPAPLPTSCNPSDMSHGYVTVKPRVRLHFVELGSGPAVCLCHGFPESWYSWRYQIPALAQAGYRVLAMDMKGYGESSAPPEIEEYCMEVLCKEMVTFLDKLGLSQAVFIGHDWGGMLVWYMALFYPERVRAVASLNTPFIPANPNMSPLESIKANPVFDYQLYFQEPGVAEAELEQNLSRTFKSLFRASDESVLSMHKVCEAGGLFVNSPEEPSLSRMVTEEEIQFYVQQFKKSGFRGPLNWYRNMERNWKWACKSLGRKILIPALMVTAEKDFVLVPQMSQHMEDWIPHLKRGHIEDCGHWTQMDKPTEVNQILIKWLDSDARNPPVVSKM
The assay can be described thus: Inhibition of sEH (unknown origin) assessed as reduction in 6-methoxy-2-naphthaldehyde formation at 100 uM using PHOME as substrate measured after 40 mins by fluorescence photometry analysis relative to control.

Assay [2] has as its target T2, Bifunctional epoxide hydrolase 2 (Homo sapiens, UniProt P34913).
T2 sequence (P34913 whole entry): T1 sequence (whole entry)
The assay can be described thus: Inhibition of sEH (unknown origin) assessed as reduction in 6-methoxy-2-naphthaldehyde formation using PHOME as substrate measured after 40 mins by fluorescence photometry analysis.

Assay [3] concerns the target T2, Bifunctional epoxide hydrolase 2. The assay can be described thus: Competitive inhibition of sEH (unknown origin) using varying levels of PHOME as substrate by Dixon plot analysis.
Assay [4] deals with T1, Bifunctional epoxide hydrolase 2 (Homo sapiens). As to conditions: dose 25.0 nM, time 40.0 min.
The target in assay [5] is T2, Bifunctional epoxide hydrolase 2. Description: Mixed type inhibition of sEH (unknown origin) using varying levels of PHOME as substrate by Dixon plot analysis.
Assay [6] shares this target. The assay can be described thus: Non competitive inhibition of sEH (unknown origin) using varying levels of PHOME as substrate by Dixon plot analysis.

On to `COc1cc(O)c2c(=O)c(O[C@@H]3O[C@H](CO)[C@@H](O)[C@H](O)[C@H]3O)c(-c3ccc(O[C@@H]4O[C@H](CO)[C@@H](O)[C@H](O)[C@H]4O)c(OC)c3)oc2c1`, for which the inhibition in assay [1] came out at 95.8%. Further, in assay [2], the concentration for half-maximal inhibition (IC50) worked out at 19.8 µM. Moreover, the affinity in assay [3], expressed as Ki, was 24.6 µM.

As to `COc1cc(O)c2c(=O)c(O)c(-c3ccc(O[C@@H]4O[C@H](CO)[C@@H](O)[C@H](O)[C@H]4O[C@@H]4OC[C@](O)(CO)[C@H]4O)c(OC)c3)oc2c1`, in assay [1], the inhibition was 64.1%.

For the molecule `CCCCOC(=O)CCCCCCCCCCCNC(=O)NC12CC3CC(CC(C3)C1)C2`, the inhibition in assay [4] was 58.9%.

For `COc1cc(-c2oc3cc(O)cc(O)c3c(=O)c2O[C@@H]2O[C@H](CO)[C@@H](O)[C@H](O)[C@H]2O)ccc1O`, in assay [1], the inhibition came to 86.5%. For the same molecule, the IC50 in assay [2] came to 30.1 µM. Further, the Ki in assay [5] worked out at 29.7 µM.

Turning to `COc1cc(O)c2c(=O)cc(-c3ccc(O[C@@H]4O[C@H](CO)[C@@H](O)[C@H](O)[C@H]4O[C@@H]4OC[C@](O)(CO)[C@H]4O)c(OC)c3)oc2c1`, the inhibition in assay [1] amounted to 66.1%.

As to `O=C(Oc1c(-c2ccc(O)c(O)c2)oc2cc(O)cc(O)c2c1=O)c1cc(O)c(O)c(O)c1`, the inhibition in assay [1] is 91.2%. For the same molecule, in assay [2], the IC50 came to 11.5 µM. This molecule also showed a Ki in assay [6] of 21.5 µM.

In the case of `COc1cc([C@@H](O)CC(=O)c2c(O)cc(O[C@@H]3O[C@H](CO)[C@@H](O)[C@H](O)[C@H]3O)cc2O)ccc1O`, in assay [1], the inhibition came out at 33.9%.

With `COc1cc([C@@H](O)CC(=O)c2c(O)cc(O[C@@H]3O[C@H](CO)[C@@H](O)[C@H](O)[C@H]3O[C@@H]3OC[C@](O)(CO)[C@H]3O)cc2O)ccc1O`, the inhibition in assay [1] turned out to be 50.9%.

In the case of `O=C(Oc1cc(O)c2c(c1)O[C@H](c1cc(O)c(O)c(O)c1)CC2)c1cc(O)c(O)c(O)c1`, the inhibition in assay [1] worked out at 90.8%. In assay [2], the IC50 was found to be 10 µM. The Ki in assay [5] was 45.5 µM.

Consider `C[C@@H]1O[C@@H](Oc2c(-c3ccc(O)c(O)c3)oc3cc(O)cc(O)c3c2=O)[C@H](O)[C@H](O)[C@H]1O` [QUERCITRIN], for which the inhibition in assay [1] amounted to 78.5%. The IC50 in assay [2] turned out to be 11.8 µM. The Ki in assay [6] stood at 39.6 µM.

As for `COc1cc(O)c(C(=O)/C=C/c2ccc(O)c(OC)c2)c(O[C@@H]2O[C@H](CO)[C@@H](O)[C@H](O)[C@H]2O)c1`, in assay [1], the inhibition was determined as 56.3%.

For `COc1cc(O)c2c(=O)c(OC)c(-c3ccc(O[C@@H]4O[C@H](CO)[C@@H](O)[C@H](O)[C@H]4O[C@@H]4OC[C@](O)(CO)[C@H]4O)c(OC)c3)oc2c1`, the inhibition in assay [1] turned out to be 90.8%. Moreover, the half-inhibitory concentration (IC50) in assay [2] came out at 12 µM. In addition, the Ki in assay [6] stood at 18.2 µM.

Turning to `COc1cc(O)c2c(=O)cc(-c3ccc(O[C@@H]4O[C@H](CO)[C@@H](O)[C@H](O)[C@H]4O)c(OC)c3)oc2c1`, the inhibition in assay [1] came out at 98.5%. In addition, the half-maximal inhibitory concentration (IC50) in assay [2] worked out at 17.5 µM. Moreover, the Ki in assay [5] worked out at 37.1 µM.

Regarding `COc1cc(O)c2c(c1)O[C@H](c1cc(O)c(O[C@@H]3O[C@H](CO)[C@@H](O)[C@H](O)[C@H]3O[C@@H]3OC[C@](O)(CO)[C@H]3O)c(OC)c1)CC2=O`, the inhibition in assay [1] was determined as 53.5%.

(Values after ChEMBL document CHEMBL4715726, “Identification, characterization, kinetics, and molecular docking of flavonoid constituents from Archidendron clypearia (Jack.) Nielsen leaves and twigs” (Bioorg Med Chem, 2016).)
